Results from patent US11877574B2, “Herbicidal oil dispersion and method” (Arysta LifeScience Inc., priority 2018, dated 2024).

Experiments:
[1] = Active ingredient assay and recovery on storage (Table 2); type: physicochemical
[2] = Active ingredient assay on storage, SCB239-12 (Table 3); type: physicochemical

## CCCCC(CC)COC(=O)COc1ccc(Cl)cc1C (stereo not shown) [MCPA, 2-ethylhexyl 2-(4-chloro-2-methylphenoxy) acetate]
[1]; 1 month storage, 0° C.
  Assay (% w/w): 34.61 % w/w
[1]; 1 month storage, 40° C.
  Assay (% w/w): 34.69 % w/w
[1]; 1 month storage, T/C
  Assay (% w/w): 34.68 % w/w
[1]; 1 month storage, −10° C.
  Assay (% w/w): 34.65 % w/w
[1]; 2 month storage, 0° C.
  Assay (% w/w): 34.82 % w/w
[1]; 2 month storage, 40° C.
  Assay (% w/w): 34.90 % w/w
[1]; 2 month storage, T/C
  Assay (% w/w): 34.94 % w/w
[1]; 2 month storage, −10° C.
  Assay (% w/w): 34.92 % w/w
[1]; 2 wks, 54° C.
  Assay (% w/w): 35.05 % w/w
[1]; 3 month storage, 0° C.
  Assay (% w/w): 35.25 % w/w
[1]; 3 month storage, 25° C.
  Assay (% w/w): 35.23 % w/w
[1]; 3 month storage, 40° C.
  Assay (% w/w): 35.28 % w/w
[1]; 3 month storage, T/C
  Assay (% w/w): 35.30 % w/w
[1]; 3 month storage, −10° C.
  Assay (% w/w): 35.36 % w/w
[1]; 6 month storage, 25° C.
  Assay (% w/w): 34.14 % w/w
[1]; 9 month storage, 25° C.
  Assay (% w/w): 34.73 % w/w
[1]; 12 month storage, 25° C.
  Assay (% w/w): 34.84 % w/w
[1]; F/T Sample
  Assay (% w/w): 35.06 % w/w
[1]; initial
  Assay (% w/w): 35.01 % w/w
[2]; 1 month storage, 0° C.
  Assay (% w/w): 33.65 % w/w
  Recovery of active ingredient (% of initial assay): 99.88 % w/w
[2]; 1 month storage, 40° C.
  Assay (% w/w): 33.61 % w/w
  Recovery of active ingredient (% of initial assay): 99.77 % w/w
[2]; 1 month storage, T/C
  Assay (% w/w): 33.64 % w/w
  Recovery of active ingredient (% of initial assay): 99.85 % w/w
[2]; 2 month storage, 0° C.
  Assay (% w/w): 34.07 % w/w
  Recovery of active ingredient (% of initial assay): 101.15 % w/w
[2]; 2 month storage, 40° C.
  Assay (% w/w): 33.84 % w/w
  Recovery of active ingredient (% of initial assay): 100.47 % w/w
[2]; 2 month storage, T/C
  Assay (% w/w): 33.97 % w/w
  Recovery of active ingredient (% of initial assay): 100.84 % w/w
[2]; 2 wks, 54° C.
  Assay (% w/w): 34.24 % w/w
  Recovery of active ingredient (% of initial assay): 101.65 % w/w
[2]; 3 month storage, 0° C.
  Assay (% w/w): 33.76 % w/w
  Recovery of active ingredient (% of initial assay): 100.21 % w/w
[2]; 3 month storage, 25° C.
  Assay (% w/w): 33.64 % w/w
  Recovery of active ingredient (% of initial assay): 99.86 % w/w
[2]; 3 month storage, 40° C.
  Assay (% w/w): 33.61 % w/w
  Recovery of active ingredient (% of initial assay): 99.76 % w/w
[2]; 3 month storage, −10° C.
  Assay (% w/w): 33.41 % w/w
  Recovery of active ingredient (% of initial assay): 99.20 % w/w
[2]; F/T sample
  Assay (% w/w): 34.30 % w/w
  Recovery of active ingredient (% of initial assay): 101.84 % w/w
[2]; Initial
  Assay (% w/w): 33.69 % w/w

## CCCCCC(C)OC(=O)COc1ccc(Cl)c2cccnc12 (stereo not shown) [cloquintocet, Cloquintocet Mexyl]
[1]; 1 month storage, 0° C.
  Assay (% w/w): 0.41 % w/w
[1]; 1 month storage, 40° C.
  Assay (% w/w): 0.41 % w/w
[1]; 1 month storage, T/C
  Assay (% w/w): 0.41 % w/w
[1]; 1 month storage, −10° C.
  Assay (% w/w): 0.41 % w/w
[1]; 2 month storage, 0° C.
  Assay (% w/w): 0.41 % w/w
[1]; 2 month storage, 40° C.
  Assay (% w/w): 0.40 % w/w
[1]; 2 month storage, T/C
  Assay (% w/w): 0.40 % w/w
[1]; 2 month storage, −10° C.
  Assay (% w/w): 0.41 % w/w
[1]; 2 wks, 54° C.
  Assay (% w/w): 0.39 % w/w
[1]; 3 month storage, 0° C.
  Assay (% w/w): 0.41 % w/w
[1]; 3 month storage, 25° C.
  Assay (% w/w): 0.41 % w/w
[1]; 3 month storage, 40° C.
  Assay (% w/w): 0.40 % w/w
[1]; 3 month storage, T/C
  Assay (% w/w): 0.41 % w/w
[1]; 3 month storage, −10° C.
  Assay (% w/w): 0.42 % w/w
[1]; 6 month storage, 25° C.
  Assay (% w/w): 0.39 % w/w
[1]; 9 month storage, 25° C.
  Assay (% w/w): 0.39 % w/w
[1]; 12 month storage, 25° C.
  Assay (% w/w): 0.39 % w/w
[1]; F/T Sample
  Assay (% w/w): 0.41 % w/w
[1]; initial
  Assay (% w/w): 0.41 % w/w
[2]; 1 month storage, 0° C.
  Assay (% w/w): 0.35 % w/w
  Recovery of active ingredient (% of initial assay): 100.15 % w/w
[2]; 1 month storage, 40° C.
  Assay (% w/w): 0.35 % w/w
  Recovery of active ingredient (% of initial assay): 99.58 % w/w
[2]; 1 month storage, T/C
  Assay (% w/w): 0.35 % w/w
  Recovery of active ingredient (% of initial assay): 99.83 % w/w
[2]; 2 month storage, 0° C.
  Assay (% w/w): 0.36 % w/w
  Recovery of active ingredient (% of initial assay): 100.12 % w/w
[2]; 2 month storage, 40° C.
  Assay (% w/w): 0.35 % w/w
  Recovery of active ingredient (% of initial assay): 100.02 % w/w
[2]; 2 month storage, T/C
  Assay (% w/w): 0.36 % w/w
  Recovery of active ingredient (% of initial assay): 101.08 % w/w
[2]; 2 wks, 54° C.
  Assay (% w/w): 0.35 % w/w
  Recovery of active ingredient (% of initial assay): 100.70 % w/w
[2]; 3 month storage, 0° C.
  Assay (% w/w): 0.35 % w/w
  Recovery of active ingredient (% of initial assay): 100.75 % w/w
[2]; 3 month storage, 25° C.
  Assay (% w/w): 0.35 % w/w
  Recovery of active ingredient (% of initial assay): 100.17 % w/w
[2]; 3 month storage, 40° C.
  Assay (% w/w): 0.35 % w/w
  Recovery of active ingredient (% of initial assay): 99.39 % w/w
[2]; 3 month storage, −10° C.
  Assay (% w/w): 0.35 % w/w
  Recovery of active ingredient (% of initial assay): 99.59 % w/w
[2]; F/T sample
  Assay (% w/w): 0.36 % w/w
  Recovery of active ingredient (% of initial assay): 101.49 % w/w
[2]; Initial
  Assay (% w/w): 0.35 % w/w
